Each structure is given as a SMILES string.

Broadly, the Cmax is the maximum level reached in the sampled fluid or tissue.

This series is described as follows: Clinical DDI cohort: midazolam with pomotrelvir 1050 mg b.i.d.
Setting [1] is: midazolam + pomotrelvir 1050 mg twice daily, Day 6.
Setting [2] is: midazolam + pomotrelvir 1050 mg twice daily, Day 11.
Setting [3] is: 1 mg midazolam alone, Day 1, N = 8.

As for `Cc1ncc2n1-c1ccc(Cl)cc1C(c1ccccc1F)=NC2` [Midazolam, midazolam, reference compound], the “AUCinf geometric mean ratio (MDZ + POMO)/(MDZ)” value (“AUCinf geometric mean ratio” below) turned out to be 1.48 (Day 6 vs Day 1) and 1.33 (Day 11 vs Day 1). Further, the “AUClast geometric mean ratio (MDZ + POMO)/(MDZ)” value (“AUClast geometric mean ratio” for short) stood at 1.51 (Day 6 vs Day 1) and 1.36 (Day 11 vs Day 1). Also, the “Cmax geometric mean ratio (MDZ + POMO)/(MDZ)” value (shortened to “Cmax geometric mean ratio”) is, setting by setting: (Day 6 vs Day 1) 1.09; (Day 11 vs Day 1) 1.09. This compound also showed a Cmax (both, human, plasma, oral, 1 mg) of 4.06 ng/mL. In addition, the Cmax geometric mean reads like this: under setting [1], 4.44 ng/mL; under setting [2], 4.44 ng/mL.

As for `OCc1ncc2n1-c1ccc(Cl)cc1C(c1ccccc1F)=NC2` [1‐OH‐midazolam, 1‐hydroxy‐midazolam], under setting [3], the AUCinf geometric mean came to 4.76 ng·h/mL, the AUClast geometric mean is 4.72 ng·h/mL and the Cmax geometric mean worked out at 1.36 ng/mL. Also, where the note is “Day 6 vs Day 1”, the “AUCinf geometric mean ratio” value was determined as 0.65, the “AUClast geometric mean ratio” value amounted to 0.62 and the “Cmax geometric mean ratio” value was determined as 0.53. Besides, for the setting “Day 11 vs Day 1”, the “AUCinf geometric mean ratio” value amounted to 0.56, the “AUClast geometric mean ratio” value is recorded as 0.56 and the “Cmax geometric mean ratio” value turned out to be 0.58. Besides, under setting [1], the AUCinf geometric mean was found to be 3.09 ng·h/mL, the AUClast geometric mean was 2.87 ng·h/mL and the Cmax geometric mean came out at 0.73 ng/mL. Moreover, under setting [2], the AUCinf geometric mean stood at 2.66 ng·h/mL, the AUClast geometric mean was 2.64 ng·h/mL and the Cmax geometric mean is reported as 0.8 ng/mL.

(Values after article PMC10583239 (CPT: Pharmacometrics & Systems Pharmacology, 2023).)
